Test results as given in patent US20230304058A1, “NOVEL 5'CAP ANALOG HAVING CAP2 STRUCTURE AND PREPARATION METHOD THEREFOR” (Shenzhen Rhegen Biotechnology Co., Ltd., priority 2020, published 2023).

Experiments:
[1] = molecular target: T7 Enzyme Mix (Escherichia phage T7, UniProt P00573); experiment: In vitro transcription mRNA synthesis with cap analog, reaction yield; assay type: biochemical; settings: per ml transcription reaction system; 37° C. for 6 h; LiCl purification
Procedure: 1. Before synthesizing mRNA, linearize the plasmid with Notl, digested at […] overnight;
2. Extract with DNA template;
React at 37° C. for 6 h. Digest with TURBO DNase for 15 min.
4. Purify the transcription products using LiCl solution and calculate the reaction yields.

[2] = tested on: mRNA; experiment: mRNA capping rate by RNase H cleavage and LC-MS; assay type: biochemical; settings: ratio of capped and uncapped mRNA
Description: The mRNA molecules with different Cap structures obtained in Example 1 were subjected to enzymatic cleavage, and the ratio of capped and uncapped mRNA molecules could be determined in a liquid chromatography-mass spectrometry analysis experiment.
1. Concentrate the beads using a magnet, aspirate the supernatant storage solution, and add an equal volume of 0.1 M NaOH +0.05 M NaCl;
2. Aspirate the supernatant and resuspend the beads with an equal volume of 0.1 M NaCl, keep the concentration constant;
3. Anneal mRNA and cleavage tags, configure the following reaction system;
Gradient annealing: 95° C. 5 min
4. Combining cleavage tags with beads • Beads were centrifuged at 15,000 g for 5 min, and the supernatant was removed, then 120 μl of annealed mRNA and tags were added and incubated for 30 min at room temperature, during which time they were gently shaken to ensure adequate binding.
5. Enzyme cleavage using RNase H; • Add 10 μl RNase H and incubate at 37° C. for 3 h. Precipitate the beads with magnet and discard the supernatant. • Add 100 μl washing buffer, mix thoroughly, magnet precipitate for 2 min, and discard the supernatant. Repeat 3 times. • Wash with DI water for 3 times.
6. Hydrolysis with RppH; • Use 10 units RppH in nebuffer 2 to hydrolyze at room temperature for 1 h.
DI water was aspirated, 100 μl of 75% ethanol preheated to 80° C. was added, incubat for 3 min, and magnet precipitat for 3 min. The supernatant was taken, followed by evaporating, and centrifuge for 45 min to a volume of 10 μl. Finally, the sample was resuspended in 50 μl of […] EDTA/1% MeOH and left for LC-MS analysis.
9. the mRNA capping rate of different Cap analogs synthesized was analyzed with LC-MS.

[3] = tested on: TLR3, TLR7, TLR8 and RIG-1; experiment: Intracellular immunogenicity of capped mRNA by RNA immunoprecipitation and quantitative PCR; assay type: cell-based; settings: relative to ARCA; Human-derived PBMC cells, 5 μg mRNA, Lipofectamine 2000, 24 h
Procedure: Experimental methods: the intracellular immunoproteins TLR3, TLR7, TLR8 and RIG-1 were immunoprecipitated together with their bound RNAs by RNA immunoprecipitation, and finally these mRNAs were identified by real-time quantitative PCR, and their relative abundance was proportional to their immunogenicity.
The cells were collected by trypsin digestion 24 h later and resuspended in PBS, centrifuged, and collected.
Fixative was added to the cells, and after 15 minutes glycine was added for termination of fixation, followed by centrifugation to collect the cells. Cells were resuspended by adding lysate, incubated on ice at 4° C. for 30 min, centrifuged at 2400 g for 10 min, and the supernatant was collected.
TLR3, TLR7, TLR8 and RIG-1 antibodies (2-10 μg) were added to the supernatant (6-10 mg) followed by gentle incubation at 4° C. for 2 hours. Protein AIG beads (40 μL) were then added to them and incubated gently for 1 h at 4° C.
Centrifuge at 2500 rpm for 30 seconds with precipitated magnetic beads and remove the supernatant. Resuspend the beads in 500 μL of RIP buffer. Wash in RIP buffer a total of three times, followed by one wash in PBS.
Resuspend magnetic beads in TRIzol RNA Extraction Reagent (1 mL) and isolate co-precipitated RNA, and then elute RNA using nuclease-free water (20 μL).
6. Reverse transcribe (RT) the RNA into cDNA and design primers according to the mRNA sequence for quantitative PCR analysis. mRNA immunogenicity is proportional to the number of mRNA copies precipitated by magnetic beads.

T7 Enzyme Mix, sequence (P00573 whole entry): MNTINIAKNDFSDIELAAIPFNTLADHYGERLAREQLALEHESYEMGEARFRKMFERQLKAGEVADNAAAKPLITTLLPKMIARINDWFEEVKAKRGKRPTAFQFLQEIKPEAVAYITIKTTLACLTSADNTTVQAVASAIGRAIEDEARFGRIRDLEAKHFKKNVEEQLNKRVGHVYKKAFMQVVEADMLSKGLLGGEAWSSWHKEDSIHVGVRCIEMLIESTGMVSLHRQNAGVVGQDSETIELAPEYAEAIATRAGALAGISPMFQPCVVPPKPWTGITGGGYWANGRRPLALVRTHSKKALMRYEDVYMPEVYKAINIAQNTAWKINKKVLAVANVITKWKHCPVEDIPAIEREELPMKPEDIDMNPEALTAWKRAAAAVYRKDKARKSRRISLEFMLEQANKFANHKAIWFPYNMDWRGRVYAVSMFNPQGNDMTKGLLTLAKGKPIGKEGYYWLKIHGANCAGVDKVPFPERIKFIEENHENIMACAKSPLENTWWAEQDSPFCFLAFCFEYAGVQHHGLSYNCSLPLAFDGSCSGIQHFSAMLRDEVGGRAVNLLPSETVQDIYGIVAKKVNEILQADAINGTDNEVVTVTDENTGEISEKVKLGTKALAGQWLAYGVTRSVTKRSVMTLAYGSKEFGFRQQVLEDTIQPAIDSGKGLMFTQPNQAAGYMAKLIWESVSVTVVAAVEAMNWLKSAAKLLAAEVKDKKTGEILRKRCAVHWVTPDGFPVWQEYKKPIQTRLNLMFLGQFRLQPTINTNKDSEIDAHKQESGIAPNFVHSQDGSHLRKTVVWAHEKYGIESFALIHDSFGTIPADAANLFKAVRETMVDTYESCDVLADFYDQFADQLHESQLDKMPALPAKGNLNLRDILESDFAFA

SMILES | Mass of final product obtained from 1 ml mRNA synthesis reaction system [1] | mRNA capping rates when using different Cap structures [2] | Intracellular immunogenicity of mRNA when using different Cap structures [3]
CO[C@@H]1[C@H](O)[C@@H](COP(=O)(O)O[C@H]2[C@@H](OC)[C@H](n3ccc(N)nc3=O)O[C@@H]2COP(=O)(O)OP(=O)(O)OP(=O)([O-])OC[C@H]2O[C@@H](n3c[n+](C)c4c(=O)[nH]c(N)nc43)[C@H](O)[C@@H]2O)O[C@H]1n1ccc(=O)[nH]c1=O [Cap analog 15, m7G(5′)ppp(5′)(2′OMeC)p(2′OMeU)] | 4.6 mg | 94.83% | 0.34
CO[C@@H]1[C@H](O)[C@@H](COP(=O)(O)O[C@H]2[C@@H](OC)[C@H](n3ccc(=O)[nH]c3=O)O[C@@H]2COP(=O)(O)OP(=O)(O)OP(=O)([O-])OC[C@H]2O[C@@H](n3c[n+](C)c4c(=O)[nH]c(N)nc43)[C@H](O)[C@@H]2O)O[C@H]1n1ccc(=O)[nH]c1=O [Cap analog 16, m7G(5′)ppp(5′)(2′OMeU)p(2′OMeU)] | 4.2 mg | 94.84% | 0.48
CO[C@@H]1[C@H](O)[C@@H](COP(=O)(O)O[C@H]2[C@@H](OC)[C@H](n3cnc4c(N)ncnc43)O[C@@H]2COP(=O)(O)OP(=O)(O)OP(=O)([O-])OC[C@H]2O[C@@H](n3c[n+](C)c4c(=O)[nH]c(N)nc43)[C@H](O)[C@@H]2OC)O[C@H]1n1cnc2c(=O)[nH]c(N)nc21 [Cap analog 17, 3-O-Me-m7G(5′)ppp(5′)(2′OMeA)p(2′OMeG)] | 4.7 mg | 94.91% | 0.44
CO[C@@H]1[C@H](O)[C@@H](COP(=O)(O)O[C@H]2[C@@H](OC)[C@H](n3cnc4c(=O)[nH]c(N)nc43)O[C@@H]2COP(=O)(O)OP(=O)(O)OP(=O)([O-])OC[C@H]2O[C@@H](n3c[n+](C)c4c(=O)[nH]c(N)nc43)[C@H](O)[C@@H]2OC)O[C@H]1n1cnc2c(=O)[nH]c(N)nc21 [Cap analog 18, 3-O-Me-m7G(5′)ppp(5′)(2′OMeG)p(2′OMeG)] | 4.1 mg | 94.98% | 0.31
CO[C@@H]1[C@H](OP(=O)(O)OC[C@H]2O[C@@H](n3cnc4c(=O)[nH]c(N)nc43)[C@H](OC)[C@@H]2O)[C@@H](COP(=O)(O)OP(=O)(O)OP(=O)([O-])OC[C@H]2O[C@@H](n3c[n+](C)c4c(=O)[nH]c(N)nc43)[C@H](O)[C@@H]2OC)O[C@H]1n1ccc(N)nc1=O [Cap analog 19, 3-O-Me-m7G(5′)ppp(5′)(2′OMeC)p(2′OMeG)] | 4.4 mg | 95% | 0.26
CO[C@@H]1[C@H](OP(=O)(O)OC[C@H]2O[C@@H](n3cnc4c(=O)[nH]c(N)nc43)[C@H](OC)[C@@H]2O)[C@@H](COP(=O)(O)OP(=O)(O)OP(=O)([O-])OC[C@H]2O[C@@H](n3c[n+](C)c4c(=O)[nH]c(N)nc43)[C@H](O)[C@@H]2OC)O[C@H]1n1ccc(=O)[nH]c1=O [Cap analog 20, 3-O-Me-m7G(5′)ppp(5′)(2′OMeU)p(2′OMeG)] | 4.6 mg | 94.42% | 0.51
CO[C@@H]1[C@H](O)[C@@H](COP(=O)(O)O[C@H]2[C@@H](OC)[C@H](n3cnc4c(N)ncnc43)O[C@@H]2COP(=O)(O)OP(=O)(O)OP(=O)([O-])OC[C@H]2O[C@@H](n3c[n+](C)c4c(=O)[nH]c(N)nc43)[C@H](O)[C@@H]2OC)O[C@H]1n1cnc2c(N)ncnc21 [Cap analog 21, 3-O-Me-m7G(5′)ppp(5′)(2′OMeA)p(2′OMeA)] | 4.8 mg | 94.55% | 0.15
CO[C@@H]1[C@H](O)[C@@H](COP(=O)(O)O[C@H]2[C@@H](OC)[C@H](n3cnc4c(=O)[nH]c(N)nc43)O[C@@H]2COP(=O)(O)OP(=O)(O)OP(=O)([O-])OC[C@H]2O[C@@H](n3c[n+](C)c4c(=O)[nH]c(N)nc43)[C@H](O)[C@@H]2OC)O[C@H]1n1cnc2c(N)ncnc21 [Cap analog 22, 3-O-Me-m7G(5′)ppp(5′)(2′OMeG)p(2′OMeA)] | 4.6 mg | 94.83% | 0.29
CO[C@@H]1[C@H](OP(=O)(O)OC[C@H]2O[C@@H](n3cnc4c(N)ncnc43)[C@H](OC)[C@@H]2O)[C@@H](COP(=O)(O)OP(=O)(O)OP(=O)([O-])OC[C@H]2O[C@@H](n3c[n+](C)c4c(=O)[nH]c(N)nc43)[C@H](O)[C@@H]2OC)O[C@H]1n1ccc(N)nc1=O [Cap analog 23, 3-O-Me-m7G(5′)ppp(5′)(2′OMeC)p(2′OMeA)] | 4.5 mg | 94.65% | 0.41
CO[C@@H]1[C@H](OP(=O)(O)OC[C@H]2O[C@@H](n3cnc4c(N)ncnc43)[C@H](OC)[C@@H]2O)[C@@H](COP(=O)(O)OP(=O)(O)OP(=O)([O-])OC[C@H]2O[C@@H](n3c[n+](C)c4c(=O)[nH]c(N)nc43)[C@H](O)[C@@H]2OC)O[C@H]1n1ccc(=O)[nH]c1=O [Cap analog 24, 3-O-Me-m7G(5′)ppp(5′)(2′OMeU)p(2′OMeA)] | 4.7 mg | 94.72% | 0.48
CO[C@@H]1[C@H](O)[C@@H](COP(=O)(O)O[C@H]2[C@@H](OC)[C@H](n3cnc4c(N)ncnc43)O[C@@H]2COP(=O)(O)OP(=O)(O)OP(=O)([O-])OC[C@H]2O[C@@H](n3c[n+](C)c4c(=O)[nH]c(N)nc43)[C@H](O)[C@@H]2OC)O[C@H]1n1ccc(N)nc1=O [Cap analog 25, 3-O-Me-m7G(5′)ppp(5′)(2′OMeA)p(2′OMeC)] | 4.1 mg | 94.8% | 0.29
CO[C@@H]1[C@H](O)[C@@H](COP(=O)(O)O[C@H]2[C@@H](OC)[C@H](n3cnc4c(=O)[nH]c(N)nc43)O[C@@H]2COP(=O)(O)OP(=O)(O)OP(=O)([O-])OC[C@H]2O[C@@H](n3c[n+](C)c4c(=O)[nH]c(N)nc43)[C@H](O)[C@@H]2OC)O[C@H]1n1ccc(N)nc1=O [Cap analog 26, 3-O-Me-m7G(5′)ppp(5′)(2′OMeG)p(2′OMeC)] | 4.6 mg | 94.97% | 0.49
CO[C@@H]1[C@H](O)[C@@H](COP(=O)(O)O[C@H]2[C@@H](OC)[C@H](n3ccc(N)nc3=O)O[C@@H]2COP(=O)(O)OP(=O)(O)OP(=O)([O-])OC[C@H]2O[C@@H](n3c[n+](C)c4c(=O)[nH]c(N)nc43)[C@H](O)[C@@H]2OC)O[C@H]1n1ccc(N)nc1=O [Cap analog 27, 3-O-Me-m7G(5′)ppp(5′)(2′OMeC)p(2′OMeC)] | 4.7 mg | 94.88% | 0.09
